Experimental data from PMC11632414 (2024).

What was measured:
[1] = test system: 23TAG (DNA, G4) TAGGGTTAGGGTTAGGGTTAGGG; experiment: UV-Vis titration, Benesi-Hildebrand; details: K+ (20 mM potassium phosphate); pH 7, 25 °C; 5 μM porphyrin titrated with DNA
[2] = test system: CMA (DNA, G4) TAGGGAGGGTAGGGAGGGT; experiment: UV-Vis titration, Benesi-Hildebrand; details: K+ (20 mM potassium phosphate); pH 7, 25 °C; 5 μM porphyrin titrated with DNA

Kb [1]: (1.5±0.4)×10^6 M^-1
Kb [2]: (1.5±0.6)×10^6 M^-1
SMILES: C[n+]1ccc(-c2c3nc(c(-c4cc[n+](C)cc4)c4ccc([nH]4)c(-c4cc[n+](C)cc4)c4nc(c(-c5cc[n+](C)cc5)c5ccc2[nH]5)C=C4)C=C3)cc1
